Target: T1, BmfaldDH (Burkholderia multivorans, UniProt A0A0H3KP42)
T1 construct: gene fdhA2; pET28a, E. coli BL21(DE3), Ni-NTA purified (His-tagged)
T1 sequence (A0A0H3KP42 1-398): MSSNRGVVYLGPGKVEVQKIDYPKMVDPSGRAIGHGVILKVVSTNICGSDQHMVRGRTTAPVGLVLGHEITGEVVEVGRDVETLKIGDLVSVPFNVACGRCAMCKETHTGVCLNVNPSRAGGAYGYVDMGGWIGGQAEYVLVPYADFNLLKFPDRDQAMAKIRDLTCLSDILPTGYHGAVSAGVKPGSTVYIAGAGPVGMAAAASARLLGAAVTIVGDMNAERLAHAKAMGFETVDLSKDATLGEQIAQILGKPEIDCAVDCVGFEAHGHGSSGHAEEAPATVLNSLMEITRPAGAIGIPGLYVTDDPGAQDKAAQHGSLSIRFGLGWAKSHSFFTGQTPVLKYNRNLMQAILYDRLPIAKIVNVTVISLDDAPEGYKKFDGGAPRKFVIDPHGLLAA
Assay: isothermal titration calorimetry
Type: binding

O=CO [formate]
thermodynamic data: isothermal titration calorimetry (ITC) to measure the thermodynamic data

NC(=O)C1=CN([C@@H]2O[C@H](COP(=O)(O)OP(=O)(O)OC[C@H]3O[C@@H](n4cnc5c(N)ncnc54)[C@H](O)[C@@H]3O)[C@@H](O)[C@H]2O)C=CC1 [NADH]
thermodynamic data: evaluating the interaction of BmfaldDH with formate and NADH
